Type in all cases: binding
The target in assay [1] is Recombinant human Bcl-2 protein (Homo sapiens (Human), UniProt P10415). The assay can be described thus: Bcl-2 TR-FRET Assay. The conditions noted are these: Bcl-2 wild type, TR-FRET; read-out: Biochemical assay (IC50, nM) Bcl-2 WT. How it is done:
Biological Example: Bcl-2 TR-FRET Assay
Compounds disclosed herein were tested for blocking of Bcl-2 protein with its ligand in an assay based on Time-Resolved Fluorescence Resonance Energy Transfer (TR-FRET) methodology. Recombinant human 0.05 nM Bcl-2 protein was pre-incubated with a serial dilution of compounds disclosed herein (top final concentration is 1 uM or 0.1 uM or 0.02 uM or 0.01 uM, 10 points) at room temperature for 0.5 hour in an assay buffer containing 20 mM potassium phosphate buffer, pH 7.5, 50 mM NaCl. 1 mM EDTA, 0.05% Tween-20, 0.01% BSA. Then the FITC labeled Bak peptide Ac-GQVGRQLAIIGDK(FITC)INR-amide (0.5 nM) and MAb Anti 6His Tb cryptate Gold were added to plate and further incubated at room temperature for 1 hour. The TR-FRET signals (337 nm-520 nm-490 nm) were read on BMG PHERAstar FSX instrument. The inhibition percentage of Bcl-2 interaction with its ligand in presence of increasing concentrations of compounds was calculated based on the TR-FRET signals. The IC50 for each compound was derived from fitting the data to the four-parameter logistic equation by Graphpad Prism software or Dotmatics.

For assay [2], the target named is recombinant human Bcl-2-G101V protein (Homo sapiens (Human), UniProt P10415, G101V). The assay can be described thus: Bcl-2-G101V TR-FRET Assay. The conditions noted are these: Bcl-2 G101V mutant, TR-FRET; read-out: Biochemical assay (IC50, nM) Bcl-2 G101V. How it is done:
(§1) Biological Example: Bcl-2-G101V TR-FRET Assay
(§2) […]. The TR-FRET signals (ex337 nm, em490 nm/520 nm) were read on BMG PHERAstar FSX instrument. The inhibition percentage of Bcl-2-G101V interaction with its ligand in presence of increasing concentrations of compounds was calculated based on the ratio of fluorescence at 490 nm to that at 520 nm. The IC50 for each compound was derived from fitting the data to the four-parameter logistic equation by Graphpad Prism software or Dotmatics.

For assay [3], the system named is recombinant human Bcl-2-G101V protein. The assay is described as follows: Bcl-2-G101V TR-FRET Assay. As to conditions: ratio of biochemical IC50 Bcl-2 G101V / Bcl-2 WT. Here is the method:
as §1, §2
In general terms: In TR-FRET formats the signal depends on donor and acceptor labels being close together.

From patent US20240376097A1, “BCL-2 Inhibitor” (BeiGene Ltd., priority 2020, published 2024) come the findings set out here.

By IC50 is commonly meant the point on the concentration scale where inhibition reaches its midpoint. Regarding `COc1ccc(CN2CCN(C3CC4(CCN(c5ccc(C(=O)NS(=O)(=O)c6ccc(NC[C@H]7CC[C@](C)(O)CC7)c([N+](=O)[O-])c6)c(Oc6cnc7[nH]cc(F)c7c6)c5)CC4)C3)[C@H](c3ccccc3C(C)C)C2)cc1` (single isomer, unassigned) [Example 95, 2-((3-fluoro-1H-pyrrolo[2,3-b]pyridin-5-yl)oxy)-N-((4-((((1r,4r)-4-hydroxy-4-methylcyclohexyl)methyl)amino)-3-nitrophenyl)sulfonyl)-4-(2-((R or S)-2-(2-isopropylphenyl)-4-(4-methoxybenzyl)piperazin-1-yl)-7-azaspiro[3.5]nonan-7-yl) benzamide], the half-inhibitory concentration (IC50) in assay [1] came to 0.23 nM; in assay [2], 0.38 nM. The “Ratio of Bcl-2 G101V/WT” value in assay [3] is on record as 1.7.
For the compound `CC(C)c1ccccc1C1CN(C2CCOC2)CCN1C1CC2(CCN(c3ccc(C(=O)NS(=O)(=O)c4ccc(NC[C@H]5CC[C@](C)(O)CC5)c([N+](=O)[O-])c4)c(Oc4cnc5[nH]ccc5c4)c3)CC2)C1` (stereo partly drawn) [Example 8, 2-((1H-pyrrolo[2,3-b]pyridin-5-yl)oxy)-N-((4-((((1r,4r)-4-hydroxy-4-methylcyclohexyl)methyl)amino)-3-nitrophenyl)sulfonyl)-4-(2-(2-(2-isopropylphenyl)-4-(tetrahydrofuran-3-yl)piperazin-1-yl)-7-azaspiro[3.5]nonan-7-yl)benzamide], the values for the IC50 in assay [1] and in assay [2] were 0.02 nM and 0.32 nM, respectively. Moreover, the “Ratio of Bcl-2 G101V/WT” value in assay [3] stood at 16.0.
As to `COc1ccc(CN2CCN(C3CC4(CCN(c5ccc(C(=O)NS(=O)(=O)c6ccc(NC[C@H]7CC[C@](C)(O)CC7)c([N+](=O)[O-])c6)c(Oc6cnc7[nH]ccc7c6)c5)CC4)C3)C(c3ccccc3CC(C)C)C2)cc1` (stereo partly drawn) [Example 35, 2-((1H-pyrrolo[2,3-b]pyridin-5-yl)oxy)-N-((4-((((1r,4r)-4-hydroxy-4-methylcyclohexyl)methyl)amino)-3-nitrophenyl)sulfonyl)-4-(2-(2-(2-isobutylphenyl)-4-(4-methoxybenzyl)piperazin-1-yl)-7-azaspiro[3.5]nonan-7-yl) benzamide], the IC50 in assay [1] amounted to 2.2 nM; in assay [2], 163 nM. Moreover, the “Ratio of Bcl-2 G101V/WT” value in assay [3] is listed as 74.1.
With `COc1ccc(CN2CCN(C3CC4(CCN(c5ccc(C(=O)NS(=O)(=O)c6ccc(NC[C@H]7CC[C@](C)(O)CC7)c([N+](=O)[O-])c6)c(Oc6cnc7[nH]ccc7c6)c5)CC4)C3)C(c3ccccc3C3CCCC3)C2)cc1` (stereo partly drawn) [Example 36, 2-((1H-pyrrolo[2,3-b]pyridin-5-yl)oxy)-4-(2-(2-(2-cyclopentylphenyl)-4-(4-methoxybenzyl)piperazin-1-yl)-7-azaspiro[3.5]nonan-7-yl)-N-((4-((((1r,4r)-4-hydroxy-4-methylcyclohexyl)methyl)amino)-3-nitrophenyl)sulfonyl)benzamide], the half-inhibitory concentration (IC50) in assay [1] worked out at 0.58 nM; in assay [2], 16 nM. The “Ratio of Bcl-2 G101V/WT” value in assay [3] came to 27.6.
With `CC(C)c1ccccc1C1CN(Cc2cccc3c2CCCC3)CCN1C1CC2(CCN(c3ccc(C(=O)NS(=O)(=O)c4ccc(NC[C@H]5CC[C@](C)(O)CC5)c([N+](=O)[O-])c4)c(Oc4cnc5[nH]ccc5c4)c3)CC2)C1` (stereo partly drawn) [Example 55, 2-((1H-pyrrolo[2,3-b]pyridin-5-yl)oxy)-N-((4-((((1r,4r)-4-hydroxy-4-methylcyclohexyl)methyl)amino)-3-nitrophenyl)sulfonyl)-4-(2-(2-(2-isopropylphenyl)-4-((5,6,7,8-tetrahydronaphthalen-1-yl)methyl)piperazin-1-yl)-7-azaspiro[3.5]nonan-7-yl)benzamide], the figures for the half-inhibitory concentration (IC50) in assay [1] and in assay [2] were 3.8 nM and 12 nM, respectively. Also, the “Ratio of Bcl-2 G101V/WT” value in assay [3] is 3.2.
The corresponding values for `CC(C)c1ccccc1C1CN(Cc2cccc3c2CCCC3)CCN1C1CC2(CCN(c3ccc(C(=O)NS(=O)(=O)c4ccc(NCC5CCOCC5)c([N+](=O)[O-])c4)c(Oc4cnc5[nH]ccc5c4)c3)CC2)C1` (stereo not drawn) [Example 56, 2-((1H-pyrrolo[2,3-b]pyridin-5-yl)oxy)-4-(2-(2-(2-isopropylphenyl)-4-((5,6,7,8-tetrahydronaphthalen-1-yl)methyl)piperazin-1-yl)-7-azaspiro[3.5]nonan-7-yl)-N-((3-nitro-4-(((tetrahydro-2H-pyran-4-yl)methyl)amino)phenyl)sulfonyl) benzamide] are 2.7 nM, 13 nM and 4.8.
For `CC#CC(c1ccccc1)N1CCN(C2CC3(CCN(c4ccc(C(=O)NS(=O)(=O)c5ccc(NC[C@H]6CC[C@](C)(O)CC6)c([N+](=O)[O-])c5)c(Oc5cnc6[nH]ccc6c5)c4)CC3)C2)C(c2ccccc2C(C)C)C1` (stereo partly drawn) [Example 63], the IC50 in assay [1] was found to be 1.4 nM; in assay [2] it was 20 nM. Further, in assay [3], the “Ratio of Bcl-2 G101V/WT” value is 14.3.
The corresponding values for `CC(C)c1ccccc1C1CN(Cc2ccc(Cl)c(Cl)c2)CCN1C1CC2(CCN(c3ccc(C(=O)NS(=O)(=O)c4ccc(NC[C@H]5CC[C@](C)(O)CC5)c([N+](=O)[O-])c4)c(Oc4cnc5[nH]ccc5c4)c3)CC2)C1` (stereo partly drawn) [Example 117, 2-((1H-pyrrolo[2,3-b]pyridin-5-yl)oxy)-4-(2-(4-(3,4-dichlorobenzyl)-2-(2-isopropylphenyl)piperazin-1-yl)-7-azaspiro[3.5]nonan-7-yl)-N-((4-((((1r,4r)-4-hydroxy-4-methylcyclohexyl)methyl)amino)-3-nitrophenyl)sulfonyl)benzamide] are 1.6 nM, 7.1 nM and 4.4.
On the same counts, the results for `CC(C)c1ccccc1C1CN(Cc2cccc3c2OC(F)(F)O3)CCN1C1CC2(CCN(c3ccc(C(=O)NS(=O)(=O)c4ccc(NC[C@H]5CC[C@](C)(O)CC5)c([N+](=O)[O-])c4)c(Oc4cnc5[nH]ccc5c4)c3)CC2)C1` (stereo partly drawn) [Example 129, 2-((1H-pyrrolo[2,3-b]pyridin-5-yl)oxy)-4-(2-(4-((2,2-difluorobenzo [d][1,3]dioxol-4-yl)methyl)-2-(2-isopropylphenyl)piperazin-1-yl)-7-azaspiro[3.5]nonan-7-yl)-N-((4-((((1r,4r)-4-hydroxy-4-methylcyclohexyl)methyl)amino)-3-nitrophenyl)sulfonyl)benzamide] are 1.8 nM, 7.8 nM and 4.4.
On the same counts, the results for `COc1ccc(N2CCCC(N3CCN(C4CC5(CCN(c6ccc(C(=O)NS(=O)(=O)c7ccc(NC[C@H]8CC[C@](C)(O)CC8)c([N+](=O)[O-])c7)c(Oc7cnc8[nH]ccc8c7)c6)CC5)C4)C(c4ccccc4C(C)C)C3)C2)cc1` (stereo partly drawn) [Example 139, 2-((1H-pyrrolo[2,3-b]pyridin-5-yl)oxy)-N-((4-((((1r,4r)-4-hydroxy-4-methylcyclohexyl)methyl)amino)-3-nitrophenyl)sulfonyl)-4-(2-(2-(2-isopropylphenyl)-4-(1-(4-methoxyphenyl)piperidin-3-yl)piperazin-1-yl)-7-azaspiro[3.5]nonan-7-yl)benzamide] are 0.65 nM, 5.6 nM and 8.7.
